According to PubChem BioAssay AID1259411 (Chemical Carcinogenesis Research Information System (CCRIS), 2018):
The source made the active and inactive calls. The rule behind the calls is not given here.

Test system: rodent carcinogenicity bioassays, tumor incidence
Assay: CCRIS carcinogenicity studies
In short: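 NCI-built, expert-reviewed records of carcinogenicity and related test outcomes (mutagenicity, tumor promotion/inhibition) compiled from published and report sources, historical span 1985-2011, not updated.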

CCCCCCCCCCCCc1ccccc1
carcinogen call (Species: MOUSE, Strain/Sex: HR/HR OSLO/MALE, FEMALE, Route: DERMAL, Dose: 0, 16, 80% IN ACETONE 2/WK FOR 78 WK (STUDY DURATION: 80 WK), Dose: 0, 16, 80% IN ACETONE 2/WK FOR 78 WK (STUDY DURATION: 80 WK), Tumor Site: Type of Lesion: SKIN: TUMOR): active; positive

O=P([O-])([O-])[O-].O=P([O-])([O-])[O-].[Pb+2].[Pb+2].[Pb+2]
carcinogen call (Species: RAT, Strain/Sex: ALBINO, Route: SUBCUTANEOUS, Dose: 20 MG 1/WK FOR UP TO 16 MO (TOTAL DOSE 40-760 MG/RAT), Tumor Site: Type of Lesion: KIDNEY: ADENOMA, PAPILLOMA, CYSTADENOMA, CARCINOMA): active; positive | carcinogen call (Species: RAT, Strain/Sex: STRAIN-CB/MALE, Route: SUBCUTANEOUS/INTRAPERITONEAL, Dose: TOTAL DOSES 29, 145, 450 MG, Dose: TOTAL DOSES 29, 145, 450 MG, Tumor Site: Type of Lesion: KIDNEY: ADENOMA, ADENOCARCINOMA): active; positive

CCC(=O)O[C@H]1CC[C@H]2[C@@H]3CCC4=CC(=O)CC[C@]4(C)[C@H]3CC[C@]12C
carcinogen call (Species: MOUSE, Route: SUBCUTANEOUS IMPLANT, Tumor Site: Type of Lesion: CERVIX, UTERUS): active; positive | carcinogen call (Species: RAT, Route: SUBCUTANEOUS IMPLANT, Tumor Site: Type of Lesion: PROSTATE GLAND): active; positive

C#CCN1CC(=O)N(COC(=O)C2C(C=C(C)C)C2(C)C)C1=O (stereo not given)
carcinogen call (Species: Mouse, Strain/Sex: Crj:CD-1 (ICR)/Female (51/Group), Route: Oral, Dose: 0, 100, 3500, 7000 ppm of 92.9% imiprothrin in diet for 78 wk, study duration 78 wk, Dose: 0, 100, 3500, 7000 ppm of 92.9% imiprothrin in diet for 78 wk, study duration 78 wk): inactive; negative | carcinogen call (Species: Mouse, Strain/Sex: Crj:CD-1 (ICR)/Male (51/Group), Route: Oral, Dose: 0, 100, 3500, 7000 ppm of 92.9% imiprothrin in diet for 78 wk, study duration 78 wk, Dose: 0, 100, 3500, 7000 ppm of 92.9% imiprothrin in diet for 78 wk, study duration 78 wk): inactive; negative | carcinogen call (Species: Rat, Strain/Sex: Sprague-Dawley/Female (50/Group), Route: Oral, Dose: 0, 50, 250, 2500, 5000 ppm of 92.9% imiprothrin in diet for 104 wk, study duration 104 wk, Dose: 0, 50, 250, 2500, 5000 ppm of 92.9% imiprothrin in diet for 104 wk, study duration 104 wk): inactive; negative | carcinogen call (Species: Rat, Strain/Sex: Sprague-Dawley/Male (50/Group), Route: Oral, Dose: 0, 50, 250, 2500, 5000 ppm of 92.9% imiprothrin in diet for 104 wk, study duration 104 wk, Dose: 0, 50, 250, 2500, 5000 ppm of 92.9% imiprothrin in diet for 104 wk, study duration 104 wk): inactive; negative

OC[C@H]1O[C@@H]2O[C@H]3[C@H](O)[C@@H](O)[C@@H](O[C@H]4[C@H](O)[C@@H](O)[C@@H](O[C@H]5[C@H](O)[C@@H](O)[C@@H](O[C@H]6[C@H](O)[C@@H](O)[C@@H](O[C@H]7[C@H](O)[C@@H](O)[C@@H](O[C@H]8[C@H](O)[C@@H](O)[C@@H](O[C@H]1[C@H](O)[C@H]2O)O[C@@H]8CO)O[C@@H]7CO)O[C@@H]6CO)O[C@@H]5CO)O[C@@H]4CO)O[C@@H]3CO
carcinogen call (Species: MOUSE, Strain/Sex: CD-1/FEMALE, Route: ORAL, Dose: 0, 25, 75, 225, 675 MG/KG/D IN DIET FOR 105 WK (STUDY DURATION: 105 WK), Dose: 0, 25, 75, 225, 675 MG/KG/D IN DIET FOR 105 WK (STUDY DURATION: 105 WK)): inactive; negative | carcinogen call (Species: MOUSE, Strain/Sex: CD-1/MALE, Route: ORAL, Dose: 0, 25, 75, 225, 675 MG/KG/D IN DIET FOR 93 WK (STUDY DURATION: 93 WK), Dose: 0, 25, 75, 225, 675 MG/KG/D IN DIET FOR 93 WK (STUDY DURATION: 93 WK)): inactive; negative | carcinogen call (Species: RAT, Strain/Sex: F344/FEMALE, Route: ORAL, Dose: 0, 2.5, 5% IN DIET FOR 104 WK (STUDY DURATION: 109 WK), Dose: 0, 2.5, 5% IN DIET FOR 104 WK (STUDY DURATION: 109 WK)): inactive; negative | carcinogen call (Species: RAT, Strain/Sex: F344/FEMALE, Route: ORAL, Dose: 0, 25, 75, 225, 675 MG/KG/D IN DIET FOR 130 WK (STUDY DURATION: 130 WK), Dose: 0, 25, 75, 225, 675 MG/KG/D IN DIET FOR 130 WK (STUDY DURATION: 130 WK)): inactive; negative | carcinogen call (Species: RAT, Strain/Sex: F344/MALE, Route: ORAL, Dose: 0, 2.5, 5% IN DIET FOR 104 WK (STUDY DURATION: 109 WK), Dose: 0, 2.5, 5% IN DIET FOR 104 WK (STUDY DURATION: 109 WK)): inactive; negative | carcinogen call (Species: RAT, Strain/Sex: F344/MALE, Route: ORAL, Dose: 0, 25, 75, 225, 675 MG/KG/D IN DIET FOR 122 WK (STUDY DURATION: 122 WK), Dose: 0, 25, 75, 225, 675 MG/KG/D IN DIET FOR 122 WK (STUDY DURATION: 122 WK)): inactive; negative

CCCCCCC(=O)O[C@H]1CC[C@H]2[C@@H]3CCC4=CC(=O)CC[C@]4(C)[C@H]3CC[C@]12C
carcinogen call (Species: RAT, Strain/Sex: WISTAR/FEMALE, Route: INTRAMUSCULAR, Dose: 0, 12.5 MG 1/WK FOR 24 WK (STUDY DURATION: 24 WK), Tumor Site: Type of Lesion: BLADDER: PAPILLOMA OR CARCINOMA): active; positive | carcinogen call (Species: RAT, Strain/Sex: WISTAR/FEMALE, Route: INTRAMUSCULAR, Dose: 0, 12.5 MG 1/WK FOR 24 WK ADMINISTERED TO OOPHORECTOMIZED RATS (STUDY DURATION: 24 WK)): inactive; negative

c1ccc2c(c1)ccc1nc3ccc4ccccc4c3cc12
carcinogen call (Species: MOUSE, Route: DERMAL, Tumor Site: Type of Lesion: INTEGUMENTARY SYSTEM (SKIN)): active; positive | carcinogen call (Species: MOUSE, Route: SUBCUTANEOUS, Tumor Site: Type of Lesion: LUNG): active; positive | carcinogen call (Species: MOUSE, Strain/Sex: HSD:ICR(BR)/FEMALE, Route: DERMAL, Dose: 0, 50 NMOL IN 50 µL ACETONE 2/WK FOR 99 WK (STUDY DURATION: 99 WK), Tumor Site: Type of Lesion: SKIN: TUMOR): active; positive | carcinogen call (Species: RAT, Strain/Sex: OSBORNE-MENDEL/FEMALE, Route: LUNG IMPLANT, Dose: 0, 0.1, 0.3, 1.0 MG IN BEESWAX/TRICAPRYLIN (STUDY DURATION: LIFETIME), Dose: 0, 0.1, 0.3, 1.0 MG IN BEESWAX/TRICAPRYLIN (STUDY DURATION: LIFETIME)): inactive; negative

O=C(O)C(Cl)(Cl)Cl
carcinogen call (Species: MOUSE, Strain/Sex: B6C3F1/FEMALE, Route: INTRAPERITONEAL, Dose: 0, 1000 NMOL TOTAL DOSE, 1/3 AND 2/3 OF THE TOTAL DOSE ADMINISTERED AT 8 AND 15 DAYS OF AGE RESPECTIVELY, ANIMALS TERMIN): inactive; negative | carcinogen call (Species: MOUSE, Strain/Sex: B6C3F1/FEMALE, Route: INTRAPERITONEAL, Dose: 0, 2000 NMOL TOTAL DOSE, 3/7 AND 4/7 OF THE TOTAL DOSE ADMINISTERED AT 8 AND 15 DAYS OF AGE RESPECTIVELY, ANIMALS TERMIN): inactive; negative | carcinogen call (Species: MOUSE, Strain/Sex: B6C3F1/FEMALE, Route: ORAL, Dose: 0, 2, 6.67, 20 MMOL/L IN DRINKING WATER FOR 360 D (STUDY DURATION: 360 D), Dose: 0, 2, 6.67, 20 MMOL/L IN DRINKING WATER FOR 360 D (STUDY DURATION: 360 D), Tumor Site: Type of Lesion: LIVER: CARCINOMA): active; positive | carcinogen call (Species: MOUSE, Strain/Sex: B6C3F1/FEMALE, Route: ORAL, Dose: 0, 2, 6.67, 20 MMOL/L IN DRINKING WATER FOR 576 D (STUDY DURATION: 576 D), Dose: 0, 2, 6.67, 20 MMOL/L IN DRINKING WATER FOR 576 D (STUDY DURATION: 576 D), Tumor Site: Type of Lesion: LIVER: ADENOMA, CARCINOMA): active; positive | carcinogen call (Species: MOUSE, Strain/Sex: B6C3F1/MALE, Route: INTRAPERITONEAL, Dose: 0, 1000 NMOL TOTAL DOSE, 1/3 AND 2/3 OF THE TOTAL DOSE ADMINISTERED AT 8 AND 15 DAYS OF AGE RESPECTIVELY, ANIMALS TERMIN): inactive; negative | carcinogen call (Species: MOUSE, Strain/Sex: B6C3F1/MALE, Route: INTRAPERITONEAL, Dose: 0, 2000 NMOL TOTAL DOSE, 3/7 AND 4/7 OF THE TOTAL DOSE ADMINISTERED AT 8 AND 15 DAYS OF AGE RESPECTIVELY, ANIMALS TERMIN): inactive; negative | carcinogen call (Species: MOUSE, Strain/Sex: B6C3F1/MALE, Route: ORAL, Dose: 0, 1, 2 G/L IN DRINKING WATER FOR 52 WK (STUDY DURATION: 52 WK), Dose: 0, 1, 2 G/L IN DRINKING WATER FOR 52 WK (STUDY DURATION: 52 WK), Tumor Site: Type of Lesion: LIVER: ADENOMA OR HEPATOCELLULAR CARCINOMA): active; positive | carcinogen call (Species: MOUSE, Strain/Sex: B6C3F1/MALE, Route: ORAL, Dose: 0, 5 G/L (0; 31 MILLIMOLAR) IN DRINKING WATER FOR 61 WK (STUDY DURATION: 61 WK), Dose: 0, 5 G/L (0; 31 MILLIMOLAR) IN DRINKING WATER FOR 61 WK (STUDY DURATION: 61 WK), Tumor Site: Type of Lesion: LIVER: CARCINOMA): active; positive | carcinogen call (Species: RAT, Strain/Sex: F344/MALE, Route: ORAL, Dose: 0, 0.05, 0.5, 5 G/L IN DRINKING WATER FOR 104 WK (STUDY DURATION: 104 WK), Dose: 0, 0.05, 0.5, 5 G/L IN DRINKING WATER FOR 104 WK (STUDY DURATION: 104 WK)): inactive; negative
